In paper PMC11649115, “In vitro safety evaluation of dopamine D3R antagonist, R-VK4-116, as a potential medication for the treatment of opioid use disorder” (PLOS ONE, 2024):
Blank lines part the entries; values can stand above or below the molecule they belong to.

Columns and labels:
CYP2D6 = CYP2D6 (Homo sapiens, UniProt P10635); assay: CYP inhibition in human liver microsomes; settings: human
CYP2C19 = CYP2C19 (Homo sapiens, UniProt P33261); assay: CYP inhibition in human liver microsomes; settings: human
Sequence of CYP2C19 (P33261 whole entry): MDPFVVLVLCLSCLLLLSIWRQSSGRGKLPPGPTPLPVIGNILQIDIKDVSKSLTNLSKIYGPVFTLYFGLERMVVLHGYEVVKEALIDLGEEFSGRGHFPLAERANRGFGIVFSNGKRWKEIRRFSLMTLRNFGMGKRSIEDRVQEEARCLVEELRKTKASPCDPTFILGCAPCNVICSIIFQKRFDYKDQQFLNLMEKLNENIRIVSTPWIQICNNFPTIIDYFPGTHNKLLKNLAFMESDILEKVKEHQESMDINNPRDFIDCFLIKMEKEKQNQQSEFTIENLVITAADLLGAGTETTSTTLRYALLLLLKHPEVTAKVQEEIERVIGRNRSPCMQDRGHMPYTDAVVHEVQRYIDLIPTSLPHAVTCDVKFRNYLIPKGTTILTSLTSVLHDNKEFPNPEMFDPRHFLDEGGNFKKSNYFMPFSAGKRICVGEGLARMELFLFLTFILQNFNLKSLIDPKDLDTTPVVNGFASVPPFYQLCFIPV

CYP2B6 = biological target: T1, CYP2B6 (Homo sapiens, UniProt P20813); assay: CYP inhibition in human liver microsomes; settings: human
T1 sequence (P20813 1-491): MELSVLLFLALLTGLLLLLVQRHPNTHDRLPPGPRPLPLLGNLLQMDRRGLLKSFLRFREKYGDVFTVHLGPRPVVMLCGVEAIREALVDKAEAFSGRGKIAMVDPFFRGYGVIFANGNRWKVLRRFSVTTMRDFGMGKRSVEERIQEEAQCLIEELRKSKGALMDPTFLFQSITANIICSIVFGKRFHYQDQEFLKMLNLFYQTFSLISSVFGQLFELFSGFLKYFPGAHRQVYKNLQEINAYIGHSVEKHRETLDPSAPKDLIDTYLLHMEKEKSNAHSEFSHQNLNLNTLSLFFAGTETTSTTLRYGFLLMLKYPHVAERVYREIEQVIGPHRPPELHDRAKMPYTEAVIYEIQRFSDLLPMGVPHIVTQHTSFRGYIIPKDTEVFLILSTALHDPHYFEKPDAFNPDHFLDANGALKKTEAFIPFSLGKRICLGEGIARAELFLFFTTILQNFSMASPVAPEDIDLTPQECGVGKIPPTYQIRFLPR

CYP2C9 = CYP2C9 (Homo sapiens, UniProt P11712); assay: CYP inhibition in human liver microsomes; settings: human
Sequence of CYP2C9 (P11712 whole entry): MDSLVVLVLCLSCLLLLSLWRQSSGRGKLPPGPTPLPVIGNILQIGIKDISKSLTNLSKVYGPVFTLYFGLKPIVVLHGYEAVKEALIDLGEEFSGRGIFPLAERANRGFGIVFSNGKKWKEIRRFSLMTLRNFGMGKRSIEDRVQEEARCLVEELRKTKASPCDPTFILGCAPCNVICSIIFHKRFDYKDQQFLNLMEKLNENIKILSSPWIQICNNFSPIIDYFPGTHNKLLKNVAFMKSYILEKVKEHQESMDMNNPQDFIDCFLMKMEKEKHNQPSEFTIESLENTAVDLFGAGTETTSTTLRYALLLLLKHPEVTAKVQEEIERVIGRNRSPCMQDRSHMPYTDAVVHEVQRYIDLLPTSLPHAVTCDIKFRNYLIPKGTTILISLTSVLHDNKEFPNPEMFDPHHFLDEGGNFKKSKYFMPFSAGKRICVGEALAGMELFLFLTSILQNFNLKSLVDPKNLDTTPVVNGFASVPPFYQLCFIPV

CYP1A2 = biological target: T2, CYP1A2 (Homo sapiens, UniProt P05177); assay: CYP inhibition in human liver microsomes; settings: human
T2 sequence (P05177 1-516): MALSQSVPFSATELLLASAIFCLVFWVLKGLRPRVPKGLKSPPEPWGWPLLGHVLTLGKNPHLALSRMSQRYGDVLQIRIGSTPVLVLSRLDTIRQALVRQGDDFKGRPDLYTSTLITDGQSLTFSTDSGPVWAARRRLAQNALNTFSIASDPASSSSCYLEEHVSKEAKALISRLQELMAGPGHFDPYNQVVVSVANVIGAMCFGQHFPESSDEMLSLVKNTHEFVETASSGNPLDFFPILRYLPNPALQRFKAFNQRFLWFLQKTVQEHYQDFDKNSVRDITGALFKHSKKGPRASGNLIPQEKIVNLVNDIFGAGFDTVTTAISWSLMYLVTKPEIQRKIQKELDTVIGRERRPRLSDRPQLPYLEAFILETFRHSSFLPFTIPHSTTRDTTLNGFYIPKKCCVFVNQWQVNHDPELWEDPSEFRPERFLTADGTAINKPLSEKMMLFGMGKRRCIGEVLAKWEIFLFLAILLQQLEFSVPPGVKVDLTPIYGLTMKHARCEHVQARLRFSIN

CYP2C8 = biological target: T3, CYP2C8 (Homo sapiens, UniProt P10632); assay: CYP inhibition in human liver microsomes; settings: human
T3 sequence (P10632 1-490): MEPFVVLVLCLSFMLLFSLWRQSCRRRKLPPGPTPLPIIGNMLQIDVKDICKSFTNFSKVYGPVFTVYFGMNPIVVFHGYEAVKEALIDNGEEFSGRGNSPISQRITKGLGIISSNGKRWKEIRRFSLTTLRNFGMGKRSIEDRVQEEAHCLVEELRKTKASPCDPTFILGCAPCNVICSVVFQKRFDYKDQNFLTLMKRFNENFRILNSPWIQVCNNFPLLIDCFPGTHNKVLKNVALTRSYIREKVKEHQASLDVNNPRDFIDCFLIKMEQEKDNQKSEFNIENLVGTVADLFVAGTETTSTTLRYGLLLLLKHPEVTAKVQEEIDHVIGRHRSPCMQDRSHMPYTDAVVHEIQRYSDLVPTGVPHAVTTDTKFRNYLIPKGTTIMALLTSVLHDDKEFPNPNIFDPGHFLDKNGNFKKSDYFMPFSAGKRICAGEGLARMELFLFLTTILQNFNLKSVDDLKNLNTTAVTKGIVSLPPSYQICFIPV

CYP3A4 = CYP3A4 (Homo sapiens, UniProt P08684); assay: CYP inhibition in human liver microsomes
Sequence of CYP3A4 (P08684 2-503): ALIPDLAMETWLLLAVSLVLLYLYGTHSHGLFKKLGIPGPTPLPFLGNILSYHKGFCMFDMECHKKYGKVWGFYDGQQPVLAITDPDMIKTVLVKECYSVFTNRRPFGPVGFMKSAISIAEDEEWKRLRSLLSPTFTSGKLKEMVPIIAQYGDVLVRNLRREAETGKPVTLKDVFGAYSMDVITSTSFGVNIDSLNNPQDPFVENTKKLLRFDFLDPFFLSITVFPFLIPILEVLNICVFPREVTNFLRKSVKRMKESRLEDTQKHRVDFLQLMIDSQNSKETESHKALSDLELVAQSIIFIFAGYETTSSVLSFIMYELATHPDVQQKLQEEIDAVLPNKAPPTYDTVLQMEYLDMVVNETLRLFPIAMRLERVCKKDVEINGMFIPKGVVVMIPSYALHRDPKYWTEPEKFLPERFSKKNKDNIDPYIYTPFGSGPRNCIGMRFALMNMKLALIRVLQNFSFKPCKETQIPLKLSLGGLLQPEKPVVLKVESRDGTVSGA

P-gp = biological target: T4, P-gp (Homo sapiens, UniProt P08183); assay: Transporter mediated assay (substrate/inhibitor), MDCK-II cells; type: in vitro ADME; settings: P-gp, substrate test, 0.1 µM
T4 construct: expressed in transfected cells; host or cells: MDCK-II cells
T4 sequence (P08183 whole entry): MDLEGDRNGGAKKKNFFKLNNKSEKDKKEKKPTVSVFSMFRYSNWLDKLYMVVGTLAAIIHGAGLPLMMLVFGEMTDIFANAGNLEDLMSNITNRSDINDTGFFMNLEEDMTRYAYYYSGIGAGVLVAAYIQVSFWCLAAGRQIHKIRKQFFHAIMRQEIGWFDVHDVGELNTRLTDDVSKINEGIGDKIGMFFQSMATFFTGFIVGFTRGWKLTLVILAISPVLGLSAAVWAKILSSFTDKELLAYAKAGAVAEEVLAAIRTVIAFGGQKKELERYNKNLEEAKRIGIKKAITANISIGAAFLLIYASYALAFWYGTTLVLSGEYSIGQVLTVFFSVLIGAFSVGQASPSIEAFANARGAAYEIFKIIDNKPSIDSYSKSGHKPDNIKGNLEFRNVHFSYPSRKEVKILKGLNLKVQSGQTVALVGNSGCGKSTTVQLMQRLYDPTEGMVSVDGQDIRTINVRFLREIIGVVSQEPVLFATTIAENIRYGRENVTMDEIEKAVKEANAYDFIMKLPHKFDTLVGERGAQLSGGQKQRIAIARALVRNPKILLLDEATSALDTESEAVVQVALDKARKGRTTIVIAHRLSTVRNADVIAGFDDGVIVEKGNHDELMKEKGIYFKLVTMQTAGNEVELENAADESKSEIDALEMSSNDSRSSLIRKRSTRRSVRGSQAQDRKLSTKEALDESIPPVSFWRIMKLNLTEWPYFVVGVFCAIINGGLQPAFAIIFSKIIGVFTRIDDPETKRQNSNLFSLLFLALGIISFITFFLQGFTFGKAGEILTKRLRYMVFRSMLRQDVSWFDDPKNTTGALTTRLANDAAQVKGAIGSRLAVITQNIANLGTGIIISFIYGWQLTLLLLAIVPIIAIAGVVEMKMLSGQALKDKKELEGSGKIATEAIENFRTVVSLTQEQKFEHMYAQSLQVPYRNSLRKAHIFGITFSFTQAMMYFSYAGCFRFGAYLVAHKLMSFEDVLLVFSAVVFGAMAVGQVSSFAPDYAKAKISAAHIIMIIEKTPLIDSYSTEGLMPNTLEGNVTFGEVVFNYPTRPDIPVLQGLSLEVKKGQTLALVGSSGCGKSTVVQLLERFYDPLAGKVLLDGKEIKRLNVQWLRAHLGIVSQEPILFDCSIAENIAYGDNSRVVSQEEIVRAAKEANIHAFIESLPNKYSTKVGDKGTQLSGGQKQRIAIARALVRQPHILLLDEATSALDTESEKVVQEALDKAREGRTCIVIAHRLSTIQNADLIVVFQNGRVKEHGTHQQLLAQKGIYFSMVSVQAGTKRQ

OCT2 = biological target: T5, OCT2 (Homo sapiens, UniProt O15244); assay: as above; type: in vitro ADME; settings: human, polarized monolayer of MDCK-II cells expressing OCT2; OCT2, No BSA, 1000 μM
T5 construct: expressed in transfected cells; host or cells: MDCK-II cells
T5 sequence (O15244 1-555): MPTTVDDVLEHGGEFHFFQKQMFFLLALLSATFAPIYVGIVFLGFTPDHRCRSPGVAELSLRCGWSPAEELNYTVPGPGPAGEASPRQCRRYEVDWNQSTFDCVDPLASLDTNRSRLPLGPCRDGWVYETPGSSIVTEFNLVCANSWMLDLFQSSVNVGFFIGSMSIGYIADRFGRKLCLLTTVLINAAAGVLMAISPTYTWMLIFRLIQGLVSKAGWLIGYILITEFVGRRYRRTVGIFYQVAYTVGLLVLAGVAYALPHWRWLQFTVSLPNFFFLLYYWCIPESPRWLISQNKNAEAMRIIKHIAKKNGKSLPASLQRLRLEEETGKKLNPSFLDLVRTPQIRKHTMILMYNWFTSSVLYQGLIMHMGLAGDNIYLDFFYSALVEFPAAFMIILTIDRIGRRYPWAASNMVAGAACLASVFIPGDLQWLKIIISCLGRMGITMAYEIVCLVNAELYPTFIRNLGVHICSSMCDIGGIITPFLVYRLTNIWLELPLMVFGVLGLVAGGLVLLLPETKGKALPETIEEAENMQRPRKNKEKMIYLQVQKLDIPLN

OATP1B3 = biological target: T6, OATP1B3 (Homo sapiens, UniProt Q9NPD5); assay: as above; type: in vitro ADME; settings: human, polarized monolayer of MDCK-II cells expressing OATP1B3; OATP1B3, No BSA, 100 μM
T6 construct: expressed in transfected cells; host or cells: MDCK-II cells
T6 sequence (Q9NPD5 1-702): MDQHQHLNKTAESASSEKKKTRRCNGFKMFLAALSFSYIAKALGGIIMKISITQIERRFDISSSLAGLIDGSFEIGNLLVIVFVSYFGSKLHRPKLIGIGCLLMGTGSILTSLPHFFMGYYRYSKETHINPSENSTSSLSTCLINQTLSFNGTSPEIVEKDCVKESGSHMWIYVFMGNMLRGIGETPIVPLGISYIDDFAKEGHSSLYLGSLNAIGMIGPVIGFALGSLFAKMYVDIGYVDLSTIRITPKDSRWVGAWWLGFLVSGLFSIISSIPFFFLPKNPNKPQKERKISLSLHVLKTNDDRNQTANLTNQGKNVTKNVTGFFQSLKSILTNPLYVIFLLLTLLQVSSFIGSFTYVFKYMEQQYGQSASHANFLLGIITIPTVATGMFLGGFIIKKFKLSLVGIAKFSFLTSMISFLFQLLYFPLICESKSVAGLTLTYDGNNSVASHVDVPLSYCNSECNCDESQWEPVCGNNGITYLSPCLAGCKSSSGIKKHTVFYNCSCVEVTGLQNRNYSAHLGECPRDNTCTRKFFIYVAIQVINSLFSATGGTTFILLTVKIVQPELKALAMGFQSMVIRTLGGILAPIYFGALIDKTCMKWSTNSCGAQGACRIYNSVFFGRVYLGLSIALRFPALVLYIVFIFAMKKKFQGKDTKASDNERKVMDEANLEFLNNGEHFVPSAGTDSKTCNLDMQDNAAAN

OATP1B1 = biological target: T7, OATP1B1 (Homo sapiens, UniProt Q9Y6L6); assay: as above; type: in vitro ADME; settings: human, polarized monolayer of MDCK-II cells expressing OATP1B1; OATP1B1, No BSA, 100 μM
T7 construct: expressed in transfected cells; host or cells: MDCK-II cells
T7 sequence (Q9Y6L6 1-691): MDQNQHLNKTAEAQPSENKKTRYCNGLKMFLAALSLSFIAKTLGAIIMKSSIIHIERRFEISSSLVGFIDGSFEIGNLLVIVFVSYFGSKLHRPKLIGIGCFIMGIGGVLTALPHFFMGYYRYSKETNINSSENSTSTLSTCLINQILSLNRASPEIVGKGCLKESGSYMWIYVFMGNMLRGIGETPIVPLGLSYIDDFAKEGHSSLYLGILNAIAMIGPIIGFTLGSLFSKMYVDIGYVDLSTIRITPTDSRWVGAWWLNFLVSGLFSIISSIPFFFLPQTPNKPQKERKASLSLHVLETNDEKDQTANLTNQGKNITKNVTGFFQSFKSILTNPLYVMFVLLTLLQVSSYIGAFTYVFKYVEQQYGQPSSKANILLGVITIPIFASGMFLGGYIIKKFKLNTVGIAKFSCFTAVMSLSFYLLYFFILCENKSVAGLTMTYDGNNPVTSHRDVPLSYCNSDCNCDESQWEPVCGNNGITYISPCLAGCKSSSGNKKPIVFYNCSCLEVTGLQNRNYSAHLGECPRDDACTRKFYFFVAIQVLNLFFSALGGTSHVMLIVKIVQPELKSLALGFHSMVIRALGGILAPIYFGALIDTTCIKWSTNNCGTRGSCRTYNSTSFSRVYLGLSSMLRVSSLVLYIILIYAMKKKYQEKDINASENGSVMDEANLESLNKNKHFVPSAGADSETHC

OAT3 = biological target: T8, OAT3 (Homo sapiens, UniProt Q8TCC7); assay: as above; type: in vitro ADME; settings: human; OAT3, No BSA, 100 μM
T8 construct: expressed in transfected cells; host or cells: MDCK-II cells
T8 sequence (Q8TCC7 1-542): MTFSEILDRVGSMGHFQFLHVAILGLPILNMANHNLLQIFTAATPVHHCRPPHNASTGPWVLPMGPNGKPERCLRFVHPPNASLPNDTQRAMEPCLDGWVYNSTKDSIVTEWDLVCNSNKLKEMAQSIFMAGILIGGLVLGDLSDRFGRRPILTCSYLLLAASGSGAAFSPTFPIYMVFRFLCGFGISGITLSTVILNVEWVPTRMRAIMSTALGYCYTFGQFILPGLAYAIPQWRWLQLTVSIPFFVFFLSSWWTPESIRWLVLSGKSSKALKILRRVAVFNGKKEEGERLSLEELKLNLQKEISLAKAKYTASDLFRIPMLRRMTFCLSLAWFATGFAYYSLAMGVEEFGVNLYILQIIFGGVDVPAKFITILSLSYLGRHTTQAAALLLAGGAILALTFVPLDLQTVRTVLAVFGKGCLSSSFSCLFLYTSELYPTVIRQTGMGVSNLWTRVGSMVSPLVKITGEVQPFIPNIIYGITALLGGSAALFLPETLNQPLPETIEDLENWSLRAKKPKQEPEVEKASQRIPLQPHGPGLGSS

[1] = CYP activity (% of Control) 3A4 (Midazolam), substrate midazolam
[2] = CYP activity (% of Control) 3A4 (Testosterone), substrate testosterone

Sequence of CYP2D6 (P10635 whole entry): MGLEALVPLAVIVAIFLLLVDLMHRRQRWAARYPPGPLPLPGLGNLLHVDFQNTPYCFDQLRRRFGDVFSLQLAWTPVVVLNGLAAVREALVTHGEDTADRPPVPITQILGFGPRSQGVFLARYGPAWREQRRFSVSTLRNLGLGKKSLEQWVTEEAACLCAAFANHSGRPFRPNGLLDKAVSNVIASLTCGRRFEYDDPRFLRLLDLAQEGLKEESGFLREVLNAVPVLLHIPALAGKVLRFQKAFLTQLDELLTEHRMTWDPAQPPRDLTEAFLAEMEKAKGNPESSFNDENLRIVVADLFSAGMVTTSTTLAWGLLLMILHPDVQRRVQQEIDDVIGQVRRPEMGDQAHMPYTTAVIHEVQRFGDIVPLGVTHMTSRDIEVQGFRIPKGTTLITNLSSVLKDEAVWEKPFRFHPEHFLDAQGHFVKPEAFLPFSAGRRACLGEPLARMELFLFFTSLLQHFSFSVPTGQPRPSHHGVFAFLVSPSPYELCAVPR

SMILES: C=C(C)[C@@H]1CCC2=CC(=O)C[C@@H](C)[C@]2(C)C1 [Nootkatone]
- activity at 20 min, 30 µM (CYP2D6; microsomes): 91.9 ± 8.4%
- activity at 20 min, 30 µM (CYP2C19; microsomes): 57.3 ± 5.7%
- activity at 20 min, 30 µM (CYP2B6; microsomes): 23.8 ± 2.7%
- activity at 20 min, 30 µM (CYP2C9; microsomes): 84.6 ± 8.5%
- activity at 20 min, 30 µM (CYP1A2; microsomes): 91.3 ± 4.8%
- activity at 20 min, 30 µM (CYP2C8; microsomes): 78.8 ± 12.5%
- activity at 20 min, 30 µM (CYP3A4; [1]): 84.5 ± 4%
- activity at 20 min, 30 µM (CYP3A4; [2]): 79.4 ± 5.4%

SMILES: S=P(N1CC1)(N1CC1)N1CC1 [ThioTEPA]
- activity at 20 min, 10 µM (CYP2D6; microsomes): 90.7 ± 2%
- activity at 20 min, 10 µM (CYP2C19; microsomes): 108 ± 4.3%
- activity at 20 min, 10 µM (CYP2B6; microsomes): 52 ± 0.1%
- activity at 20 min, 10 µM (CYP2C9; microsomes): 92.9 ± 1.5%
- activity at 20 min, 10 µM (CYP1A2; microsomes): 93.8 ± 4.3%
- activity at 20 min, 10 µM (CYP2C8; microsomes): 96.8 ± 4.4%
- activity at 20 min, 10 µM (CYP3A4; [1]): 92.6 ± 2.2%
- activity at 20 min, 10 µM (CYP3A4; [2]): 91.4 ± 1.3%

SMILES: C=C[C@H]1C[N@@]2CC[C@H]1C[C@@H]2[C@@H](O)c1ccnc2ccc(OC)cc12 [quinidine, reference compound]
- Vectorial Net Transport (B->A) - (A->B) (P-gp): 0.52 ± 0.03 pmoles/min/cm^2
- Papp A→B at 0.1 µM (P-gp; human, MDCK-MDR1): 2.62 ± 0.42 ×10⁻⁶ cm/s
- Papp B→A at 0.1 µM (P-gp; human, MDCK-MDR1): 80.7 ± 4.23 ×10⁻⁶ cm/s
- activity at 20 min, 2 µM (CYP2D6; human liver microsomes, probe bufuralol): 17.3 ± 0.2%
- activity at 20 min, 2 µM (CYP2C19; human liver microsomes, probe mephenytoin): 97.7 ± 2.3%
- activity at 20 min, 2 µM (CYP2B6; human liver microsomes, probe bupropion): 91.6 ± 2.4%
- activity at 20 min, 2 µM (CYP2C9; human liver microsomes, probe diclofenac): 82.7 ± 1.1%
- inhibition at 1000 µM (OCT2): 100 ± 0.21%
- activity at 20 min, 2 µM (CYP1A2; human liver microsomes, probe phenacetin): 88.3 ± 1%
- activity at 20 min, 2 µM (CYP2C8; human liver microsomes, probe paclitaxel): 71.3 ± 2.2%

- inhibition at 100 µM (OATP1B3): 99.2 ± 0.26%
- inhibition at 100 µM (OATP1B1): 98.3 ± 1.37%
SMILES: CO[C@H]1/C=C/O[C@@]2(C)Oc3c(C)c(O)c4c(O)c(c(/C=N/N5CCN(C)CC5)c(O)c4c3C2=O)NC(=O)/C(C)=C\C=C\[C@H](C)[C@H](O)[C@@H](C)[C@@H](O)[C@@H](C)[C@H](OC(C)=O)[C@@H]1C [Rifampicin, reference compound]

- inhibition at 100 µM (OAT3): 95.3 ± 0.73%
SMILES: CCCN(CCC)S(=O)(=O)c1ccc(C(=O)O)cc1 [probenecid, reference compound]
